The source of these data is article PMC7708037, “Targeting OGG1 arrests cancer cell proliferation by inducing replication stress” (Nucleic Acids Research, 2020).

The test system of one data set is ACHN. Kind of data set: Colony formation assay. Format: cell-based, human. The settings on record: 6–11 days, Figure 3D. The procedure: (§1) The indicated concentrations TH5487 were spotted in 6-well plates using a Tecan D300e digital dispenser. 200–500 cells/well H460, ACHN, Ogg1^−/− mouse embryonic fibroblasts and MRC5 cells were then seeded at 200–500 cells/well and incubated for 7–11 days. Colonies exceeding 50 cells were fixed, stained and enumerated as above.
(§2) Figure 3. The OGG1 inhibitor TH5487 is selectively toxic to oncogene-expressing cells and cancer cell lines. (A) Close-up view of ligand TH5487 (green) binding to human OGG1. Important residues in the binding site are marked, hydrogen bond interactions are shown in black dashed line, water (red sphere)-mediated interactions in grey dashed line. (B) Comparison between the binding of ligand TH5487 (green) to human OGG1 (gray) with the structure of TH5675 (pink) bound to mouse OGG1 (yellow, PDB 6G3Y). (C) Viability of BJ-Tert and BJ-Ras cells exposed to the indicated concentrations TH5487 for five days. Data are average ±SD of four technical replicates from two independent experiments. (D) Clonogenic survival of cell lines exposed to TH5487. The cancer cell lines ACHN and H460, and the non-transformed cell lines MRC5 and Ogg1^−/− mouse embryonic fibroblasts (MEF) were incubated for 6–11 days in the presence of the indicated concentrations TH5487, followed by colony enumeration. Data are average ±SD values of four technical replicates, representative of three independent experiments. (E) TH5487 selectively decreases viability of cancer cell lines. EC50-values of 34 cancer (red) and 7 non-transformed cell lines (blue). Cells were exposed to a dilution series of TH5487 for five days followed by a viability assessment using resazurin. All cell lines were tested in two to ten independent experiments. Each point represents the EC50-value from one experiment (average of two or three technical replicates). (F) Comparative analysis of EC50 values for TH5487 in cancer- and non-transformed cell lines, and CD34+ hematopoietic stem cells, CD34- fraction from cord blood or PBMCs from healthy donor blood. […]

The test system of another data set is H460. The experiment in a line: Colony formation assay. The format is cell-based, human. To be noted: H460, 6–11 days, Figure 3D. The protocol:
as §1, §2

The next data set has as its system MRC5. The experiment in a line: Colony formation assay. Format: cell-based, human. The settings on record: MRC5, up to 20 μM. The protocol: as §1, §2
On the set-up of data set [1]: method as in PMID 30442810. The settings on record: cited from earlier work.
On the set-up of data set [2]: method as in PMID 30442810. To be noted: cited from earlier work. This is another data set of the same source.
Details of data set [3]: method as in PMID 30442810. The settings on record: cited from earlier work. The source holds these as a separate data set.
Another data set deals with A3 xenograft tumors. Kind of data set: Mouse xenograft experiment. To be noted: A3 subcutaneous tumors in NOD-SCID mice, oral 20 mg/kg, increased to 40 mg/kg. Format: in vivo. The procedure: (§3) Animal experiments were conducted as per the European directive, ethical guideline and regulations of the regional animal ethical committee Stockholm 2010/63 (N8914). Upon arrival to animal facility, animals were acclimatized in the animal house for a week with ad lib food and water, with a 12 h light cycle and the temperature and humidity set according to laboratory animal guidelines and regulations. For the xenograft experiment involving inducible shRNA, 1 × 10^7 non-targeting luciferase transfected A3 cells in 50% matrigel in PBS were injected into flank region of BALB/c nude mice. Later, mice from non-targeting and shRNA groups were randomly divided into two groups containing eight mice per group. […] Tumor volume was measured using calipers (length × 0.52 × width × width) and bioluminescence images were taken using an IVIS spectrum in vivo imaging system (Perkin-Elmer) after intraperitoneal injection of D-luciferin (150 mg/kg in PBS). […] Following lysis by three freeze-thaw cycles, samples were centrifuged at 20 000 × g for 30 min, and OGG1 in the supernatant was detected by immunoblotting. […]
(§4) Figure 7. […] Tumors were excised following termination, and TH5487 target engagement was analyzed by cellular thermal shift assay, using an antibody specific for the human OGG1 protein. […]

In another data set the target is OGG1 enzyme (Homo sapiens, UniProt O15527). Kind of data set: Cellular thermal shift assay in excised xenograft tumors. Format: in vivo. Details: endogenous in cells; host or cells: A3 T-cell acute lymphoblastic leukemia cells (luciferase-transfected) grown as subcutaneous xenograft tumours in NOD-SCID mice. To be noted: A3 xenograft tumors excised following termination. The procedure:
as §3, §4

Chain of OGG1 enzyme (O15527 whole entry): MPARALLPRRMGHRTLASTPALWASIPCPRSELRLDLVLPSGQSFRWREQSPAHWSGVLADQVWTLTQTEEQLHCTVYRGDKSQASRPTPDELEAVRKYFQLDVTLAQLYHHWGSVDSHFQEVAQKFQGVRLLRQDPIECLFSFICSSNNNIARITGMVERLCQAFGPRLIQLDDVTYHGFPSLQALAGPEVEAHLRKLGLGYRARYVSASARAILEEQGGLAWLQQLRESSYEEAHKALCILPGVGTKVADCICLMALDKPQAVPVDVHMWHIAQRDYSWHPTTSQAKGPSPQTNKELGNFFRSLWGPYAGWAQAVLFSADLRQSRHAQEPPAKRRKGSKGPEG

`O=C(Nc1ccc(I)cc1)N1CCC(n2c(=O)[nH]c3c(Br)cccc32)CC1` [TH5487]: the Clonogenic potential entry in the data set with ACHN is “concentration-dependent loss of clonogenic potential”; in the data set with H460, “concentration-dependent loss of clonogenic potential”; with MRC5, “unaffected”. In addition, the “Fraction associated with plasma proteins” value in data set [1] is “more than 99%”. Moreover, the Tolerability in mice entry in data set [2] is recorded as “well tolerated”. For the same compound, the “Stability in mouse serum” value in data set [3] is “stable”. In addition, the Xenograft growth inhibition result in the data set on A3 xenograft tumors was “not able to detect xenograft growth inhibition”. Besides, at OGG1 enzyme, the “OGG1 target engagement in xenograft tumor (CETSA)” value is listed as “unable to demonstrate OGG1 target engagement”.
